Measured values as given in US9700051B2, “Use of squalamine or analogue as a disinfecting agent” (ASSISTANCE PUBLIQUE—HOPITAUX DE MARSEILLE, priority 2012, dated 2017).
Converted amounts (≈) assume the structure as drawn. Like-named read-outs stand apart in the source and are kept apart here.

How the values were obtained:
C. albicans DSM 1386 [1] = test: In vitro model of nebulizer disinfection with aqueous solution; type: cell-based, Candida albicans; settings: for log reduction for C. albicans: 190 mg/ml; for log reduction in viable cells of C. albicans: 0.5 g/l, 20 minutes; for dose needed to ensure nebulizer disinfection: C. albicans DSM 1386
Text: (§1) In the different tests below the strains used were Pseudomonas aeruginosa DSM 939 (ATCC 15442), Staphylococcus aureus DSM 799 (ATCC 6538), Candida albicans DSM 1386 (ATCC 10231) and Aspergillus niger ATCC 16404.
(§2) Nebulizers of Pari LC type were infected with bacteria (S. aureus and P. aeruginosa) via a suspension calibrated at 10^8 cfu/ml, and with fungi (C. albicans and A. niger) via a suspension calibrated at 10^7 cfu/ml. These nebulizers were then disinfected by soaking in a squalamine solution for 20 min, Glutaraldehyde and korsolex (peracetic acid) being used as inhibition control.
(§3) The microbial contamination of the nebulizer was obtained in vitro by soaking the inner part of the nebulizer (Pari LC, SPRINT SP, Pari, Germany) in a bacterial suspension prepared in Mueller Hinton broth containing 1·10^8 to 5·10^8 cfu/ml of bacteria (NF EN 1040, 1997) for 20 minutes. Disinfection was obtained by soaking this same part in a sterile water solution containing squalamine or ASD 2 for […] at the determined concentration in relation to the bacteria under consideration. For the fungi, suspensions of 1·10^7 to 5·10^7 cfu/ml (NF EN 1275, 1997) were prepared in Sabouraud broth and after incubation the nebulizer was soaked in sterile water containing squalamine or ASD 2. The nebulizer was then rinsed with two successive solutions of sterile water. The bacterial or fungal count was performed on the second wash bath. The counting of bacterial or fungal colonies was conducted on Tryptone Soya Agar for 24 hours for bacterial growth and on malt extract agar-agar for fungi at 37° C. for 48 hours.
(§4) The bactericidal and fungicidal test was performed three times in independent experiments and each bacterium and mould was evaluated separately. The concentration of squalamine and ASD 2 was increased until the required bactericidal and fungicidal activity was obtained. The disinfection time was set at 20 minutes for the first case and subsequently extended to 6 hours for A. Niger.

[2] = system: Aspergillus niger ATCC 16404; test: Disinfecting antifungal activity on infected nebulizer as per standard FR-EN 1275; type: cell-based; settings: for log reduction of viable spore cells of A. Niger: 2 g/l, 6 hours; for log reduction in viable cells of A. niger: aqueous solution 0.5 g/l, 1 h
Protocol: as §1
Nebulizer contamination with fungi was obtained in vitro by soaking the inner part of nebulizers (Pari LC, SPRINT SP, Pari, Germany) in 1·10^7 fungi suspension at 5·10^7 cfu/mL prepared in Sabouraud broth. After incubation the nebulizer was soaked in sterile water containing squalamine at the determined concentrations in relation to the fungal strains under consideration (i.e. […] The nebulizer was then rinsed with two successive solutions of sterile water. The fungal count was performed on the second wash bath. The count of fungal colonies was performed on malt extract agar-agar (48 h).

[3] = system: Pseudomonas aeruginosa DSM 939 (ATCC 15442); test: Disinfecting antibacterial action on infected nebulizer as per standard FR-EN 1040; type: cell-based; settings: aqueous solution 0.5 g/l, within 1 hour
Protocol: as §1
(§5) The microbial contamination of nebulizers was obtained in vitro by soaking the inner part of nebulizers (Pari LC, SPRINT SP, Pari, Germany) in a bacterial suspension prepared in Mueller Hinton broth containing 1·10^8 to 5·10^8 cfu/mL of bacteria. Disinfection was performed by soaking this same part in a solution of sterile water containing squalamine for 1 h at a determined concentration of 0.5 g/L for the bacteria under consideration (S. aureus or P. aeruginosa). The nebulizer was then rinsed with two successive sterile water solutions. The bacterial count was performed on the second wash bath on Tryptone Soya Agar (24 h).

[4] = system: Staphylococcus aureus DSM 799 (ATCC 6538); test: as above; type: cell-based; settings: aqueous solution 0.5 g/l, within 1 hour
Protocol: as §1, §5

[5] = system: Candida albicans DSM 1386 (ATCC 10231); test: Disinfecting antifungal activity on infected nebulizer as per standard FR-EN 1275; type: cell-based; settings: aqueous solution 0.5 g/l, 1 h
Protocol: as §1
Nebulizer contamination with fungi was obtained in vitro by soaking the inner part of nebulizers (Pari LC, SPRINT SP, Pari, Germany) in 1·10^7 fungi suspension at 5·10^7 cfu/mL prepared in Sabouraud broth. After incubation the nebulizer was soaked in sterile water containing squalamine at the determined concentrations in relation to the fungal strains under consideration (i.e. 0.5 g/L for C. albicans (1 hour soaking) and 2 g/l for A. niger (6 h soaking). The nebulizer was then rinsed with two successive solutions of sterile water. The fungal count was performed on the second wash bath. The count of fungal colonies was performed on malt extract agar-agar (48 h).

P. aeruginosa DSM 939 [6] = test: In vitro model of nebulizer disinfection with aqueous solution; type: cell-based, Pseudomonas aeruginosa; settings: for log reduction for bacteria (P. aeruginosa): 80 mg/ml; for log reduction for bacteria (P. aeruginosa) / log reduction in viable cells of P. aeruginosa: 20 minutes; for log reduction in viable cells of P. aeruginosa: 0.5 g/l; for dose needed to ensure nebulizer disinfection: P. aeruginosa DSM 939
Text: as §1, §2, §3, §4

S. aureus DSM 799 [7] = test: Minimum Inhibitory Concentration (MIC); type: cell-based; settings: Staphylococcus aureus, DSM799
Text: as §1
(§6) 4.2.1) The nebulizers used were infected with different bacterial suspensions (S. aureus and P. aeruginosa) calibrated at 10^8 cfu/ml or fungal suspensions (C. albicans and A. niger) calibrated at 10^7 cfu/ml. In a preliminary set of experiments, values of Minimum Inhibitory Concentration (MIC) and Time Kill of squalamine and ASD 2 were determined against chosen reference bacteria and fungi (MIC only). […] A time of 20 minutes was defined to carry out nebulizer disinfection using squalamine whilst korsolex PAA and the 2% solution of glutaraldehyde were used for a time of 15 minutes following the manufacturers' instructions to obtain disinfecting properties. At a first attempt, it was able to be shown that the use of a dose of 80 mg/ml squalamine or ASD-2 for 20 minutes leads to a 2- and 3-log reduction for bacteria whilst a 2-log reduction for C. albicans was only obtained when using a concentration of squalamine or ASD-2 of 190 mg/ml. […] Nonetheless, squalamine and ASD 2 used at a concentration stronger than 0.5 g/l are capable of obtaining a 5-log10 reduction in viable cells of bacteria such as S. aureus, P. aeruginosa and a 4-log10 reduction for fungi such as C. albicans with a cycle of 20 min (FIG. 2A). On the other hand, for A. niger, the concentration enabling a fungicidal effect to be obtained (i.e. not only fungistatic but additionally with spore eradication) was higher than for the bacteria and over a longer time (2 g/l for 6 hours) (FIG. 2B).

P. aeruginosa DSM 939 [8] = test: Minimum Inhibitory Concentration (MIC); type: cell-based; settings: Pseudomonas aeruginosa, DSM939
Text: as §1, §6

A. niger ATCC 16404 [9] = test: Minimum Inhibitory Concentration (MIC); type: cell-based; settings: Aspergillus niger, ATCC16404
Text: as §1, §6

C. albicans DSM 1386 [10] = test: Minimum Inhibitory Concentration (MIC); type: cell-based; settings: Candida albicans, DSM1386
Text: as §1, §6

A. niger ATCC 16404 [11] = test: In vitro model of nebulizer disinfection with aqueous solution; type: cell-based, Aspergillus niger; settings: for log reduction in viable cells of A. niger: 2 g/l, within 6 hours; for concentration enabling a fungicidal effect (with spore eradication) on A. niger: 6 hours; for dose needed to ensure nebulizer disinfection: A. niger ATCC 16404; for decrease for A. Niger: first attempt, 80 to 190 mg/ml, 20 minutes
Text: as §1, §2, §3, §4

S. aureus DSM 799 [12] = test: as above; type: cell-based, Staphylococcus aureus; settings: for log reduction for bacteria (S. aureus): 80 mg/ml; for log reduction for bacteria (S. aureus) / log reduction in viable cells of S. aureus: 20 minutes; for log reduction in viable cells of S. aureus: 0.5 g/l; for dose needed to ensure nebulizer disinfection: S. aureus DSM 799
Text: as §1, §2, §3, §4

spores of A. Niger = settings: acid glutaraldehyde 0.5%; within 100 minutes; cited from earlier work
A. niger = settings: in vitro, within 24 hours; cited from earlier work
S. aureus = settings: topical lipophilic formulation, 0.5 to 5 mg/ml, 10^6 cfu/ml, cited from earlier work
[13] = Effect on plastic or metallic material (corrosion)
[14] = Cutaneous toxicity on the backs of shaven mice; type: in vivo; settings: concentrations in aqueous solution of 2 000
Text: Cutaneous toxicity was examined over a period of 15 days by applying a squalamine ointment onto the backs of shaven mice (batch of 10 mice).

Structure (SMILES) | log reduction for C. albicans (C. albicans DSM 1386 [1]) [log] | log reduction in viable cells of C. albicans (C. albicans DSM 1386 [1]) [log] | dose needed to ensure nebulizer disinfection (C. albicans DSM 1386 [1]) [mg/L] | log reduction of viable spore cells of A. Niger [2] [log] | log reduction in viable cells of A. niger [2] [log] | log reduction of viable cells of P. aeruginosa [3] [log] | log reduction of viable cells of S. aureus [4] [log] | log reduction in viable cells of C. albicans [5] [log] | log reduction for bacteria (P. aeruginosa) (P. aeruginosa DSM 939 [6]) [log] | log reduction in viable cells of P. aeruginosa (P. aeruginosa DSM 939 [6]) [log] | dose needed to ensure nebulizer disinfection (P. aeruginosa DSM 939 [6]) [mg/L] | MIC (S. aureus DSM 799 [7]) [µg/mL] | MIC (P. aeruginosa DSM 939 [8]) [µg/mL] | MIC (A. niger ATCC 16404 [9]) [µg/mL] | MIC (C. albicans DSM 1386 [10]) [µg/mL] | log reduction in viable cells of A. niger (A. niger ATCC 16404 [11]) [log] | concentration enabling a fungicidal effect (with spore eradication) on A. niger (A. niger ATCC 16404 [11]) [g/L] | dose needed to ensure nebulizer disinfection (A. niger ATCC 16404 [11]) [mg/L] | decrease for A. Niger (A. niger ATCC 16404 [11]) | log reduction for bacteria (S. aureus) (S. aureus DSM 799 [12]) [log] | other results
CC(C)CCC[C@@H](C)[C@H]1CCC2C3C(CC[C@@]21C)[C@@]1(C)CC[C@H](O)CC1C[C@@H]3NCCCCN (stereo partly drawn) [ASD 2] | 2 | 4 | 500 | 4 | 6 | 8 | 8 | 6 | 3 | 5 | 130 | 2 (≈ 4.21 µM) | 8 (≈ 16.8 µM) | 8 (≈ 16.8 µM) | 8 (≈ 16.8 µM) | 4 | 2 | 2000 | no significant decrease | 2 | log reduction in viable cells of S. aureus (S. aureus DSM 799 [12]): 5 log; dose needed to ensure nebulizer disinfection (S. aureus DSM 799 [12]): 210 mg/L
O=CCCCC=O [acid glutaraldehyde, glutaraldehyde] |  |  |  |  |  |  |  |  |  |  |  |  |  |  |  |  |  |  |  |  | log reduction in the number of spores of A. Niger (spores of A. Niger): 1 log
CC(C)[C@@H](CC[C@@H](C)[C@H]1CCC2C3C(CC[C@@]21C)[C@@]1(C)CC[C@H](NCCCNCCCCN)CC1C[C@H]3O)OS(=O)(=O)O (stereo partly drawn) [squalamine] | 2 | 4 | 500 | 4 | 6 | 8 | 8 | 6 | 3 | 5 | 130 | 2 (≈ 3.18 µM) | 4 (≈ 6.37 µM) | 16 (≈ 25.5 µM) | 16 (≈ 25.5 µM) | 4 | 2 | 2000 | no significant decrease | 2 | log reduction of A. niger (A. niger): 4 log; log reduction of spores ([2]; aqueous solution of 2 g/l): 4 log; log reduction of S. aureus (S. aureus; within 24 hours): 4 log; log reduction of S. aureus (S. aureus; within 48 hours): 5 log; degradation of the equipment treated and/or in contact with the product [13]: do not induce any degradation; cutaneous toxicity [14]: do not cause cutaneous toxicity; log reduction in viable cells of S. aureus (S. aureus DSM 799 [12]): 5 log; dose needed to ensure nebulizer disinfection (S. aureus DSM 799 [12]): 210 mg/L
